Read-outs that look alike come from different tables or passages of the source.
How the values were obtained:
NCI-H295R cells = assay: Cortisol production in 8-Br-cAMP-stimulated NCI-H295R cells (ELISA); format: cell-based, human; conditions: for Cortisol production concentration: 0.5 mM 8-Br-cAMP, 12 h pretreatment + 24 h; for Cortisol production concentration / inhibition of cortisol production increased by 0.5 mM 8-Br-cAMP (in words): NCI-H295R; for reduction in cortisol production: compared with non-treatment group (with 8-Br-cAMP treatment); for inhibition of cortisol production increased by 0.5 mM 8-Br-cAMP (in words): 20, 50, 100 μM
Description: Cortisol secretion inhibitory effects by allithiamine (Shanghai iChemical Technology CO., LTD., China), fursultiamine (Toronto Research Chemicals, Canada), or benfotiamine (Sigma-Aldrich, St. Louis, MO, USA), which are thiamine (vitamin B1) based compounds, were tested. For this, cortisol reduction effects in adrenal tumors that excessively secret cortisol were measured.
NCI-H295R (ATCC #CRL-2128) cells, a human adrenocortical carcinoma cell line, were dispensed into 24-well plates at 2.5×10^5 cells/well. Then, the cells were incubated in DMEM/F12 growth media containing 2.5% Nu-serum, 1% ITS (insulin, transferrin, and selenium), bovine serum albumin (BSA), linoleic acid, and penicillin/streptomycin for 48 hours.
Thereafter, the media were exchanged with serum-free media, and then the NCI-H295R cells were pretreated with allithiamine, fursultiamine, or benfotiamine at concentrations of 20 μM, 50 μM, and 100 μM for 12 hours. The cells were treated with 8-bromoadenosine 3′,5′-cyclic monophosphate (8-Br-cAMP) at a concentration of 0.5 mM to increase cortisol synthesis, and again treated with allithiamine, fursultiamine, or benfotiamine at 20 μM, 50 μM, and 100 μM, followed by reaction for 24 hours. After the reaction, cell cultures were collected, and the amount of cortisol produced in the cells was measured using an enzyme-linked immunosorbent assay (ELISA) kit (Enzo Life Sciences, Inc., NY, USA).

CRH-overexpressed mice = test system: CRH-overexpressed mice
Description: To investigate high-cortisol inhibitory effects, C57BL/6J normal mice (WT-con) aged 8 to 9 weeks and corticotropin-releasing hormone (CRH)-overexpressed mice, which are Cushing's syndrome animal models, were used. One group of CRH-overexpressed mice were orally administered with 60 mg/kg fursultiamine once a day for 9 weeks (CRH tg-Fur 60 mpk).
During this period, the body weight change was monitored by measuring body weights once a week. To check the concentration of corticosterone (in cases of rodents), blood was collected from the tail vein and serum was isolated. The concentration of corticosterone was measured from the isolated serum by using an enzyme-linked immunosorbent assay (ELISA) kit (Enzo Life Sciences, Inc., NY, USA). The fat mass was measured 6 weeks after administration of the drug by using a body composition analyzer (MiniSpec LF 50, Bruker Optics, Germany), and the fat distribution was again monitored with micro CT images 8 weeks after administration.

8-week-old male mice = conditions: for corticosterone concentration: serum, oral 24 h and 2 h before stress
Description: For the restraint stress test, 8-week-old male mice were used, and were orally administered with fursultiamine once 24 hours before and once 2 hours before stress induction. For induction of stress, the mice were individually placed head-first into well-ventilated 50 mL polypropylene tubes, which were then tied with a cap of the 50 mL tube, and the mice were confined for 2 hours. Before stress induction, 1 hour and 2 hours after induction, and at 1 hour of recovery, blood was collected from the tail vein and serum was isolated, and then the concentration of corticosterone was measured using ELISA kit.

With `C=CCSS/C(CCO)=C(/C)N(C=O)Cc1cnc(C)nc1N` [allithiamine] the Cortisol production concentration (NCI-H295R cells; 20 μM compound) was 10.5 ng/mL, the Cortisol production concentration (NCI-H295R cells; 50 μM compound) was 6.4 ng/mL and the “reduction in cortisol production” value (NCI-H295R cells; 50 μM) was 50.7%. For the same molecule, the Cortisol production concentration (NCI-H295R cells; 100 μM compound) was 2.8 ng/mL, the “reduction in cortisol production” value (NCI-H295R cells; 100 μM) was 78.7% and the “inhibition of cortisol production increased by 0.5 mM 8-Br-cAMP (in words)” value (NCI-H295R cells) was “significantly inhibited the cortisol production”.

For `C/C(=C(\CCOP(=O)(O)O)SC(=O)c1ccccc1)N(C=O)Cc1cnc(C)nc1N` [benfotiamine], the Cortisol production concentration (NCI-H295R cells; 20 μM compound) was 14.0 ng/mL, the Cortisol production concentration (NCI-H295R cells; 50 μM compound) was 12.0 ng/mL and the “reduction in cortisol production” value (NCI-H295R cells; 50 μM) was 22.6%. The Cortisol production concentration (NCI-H295R cells; 100 μM compound) was 8.6 ng/mL, the “reduction in cortisol production” value (NCI-H295R cells; 100 μM) was 44.3% and the “inhibition of cortisol production increased by 0.5 mM 8-Br-cAMP (in words)” value (NCI-H295R cells) was “significantly inhibited the cortisol production”.

In the case of `CC(=C(CCO)SSCC1CCCO1)N(C=O)Cc1cnc(C)nc1N` (stereo in doubt) [fursultiamine], the Cortisol production concentration (NCI-H295R cells; 20 μM compound) is reported as 14.1 ng/mL, the Cortisol production concentration (NCI-H295R cells; 50 μM compound) is reported as 9.0 ng/mL and the “reduction in cortisol production” value (NCI-H295R cells; 50 μM) is reported as 43%. The Cortisol production concentration (NCI-H295R cells; 100 μM compound) was 7.5 ng/mL, the “reduction in cortisol production” value (NCI-H295R cells; 100 μM) was 52.4% and the “inhibition of cortisol production increased by 0.5 mM 8-Br-cAMP (in words)” value (NCI-H295R cells) was “significantly inhibited the cortisol production”. For the same molecule, the “corticosterone synthesis concentration (in words)” value (CRH-overexpressed mice; CRH-overexpressed mice, 60 mg/kg oral) was “smaller compared with the normal group”, the “fat mass, Body weight (%)” value (CRH-overexpressed mice; CRH-overexpressed mice, 60 mg/kg oral once a day, 6 weeks after administration, body composition analyzer) was 23.4% and the “increase in body weight (in words)” value (CRH-overexpressed mice; CRH-overexpressed mice, 60 mg/kg oral, 9 weeks, vs CRH-overexpressed control) was “smaller increase in body weight compared with the control”. For the same molecule, the “fat mass (in words)” value (CRH-overexpressed mice; CRH-overexpressed mice, 60 mg/kg oral, vs control) was “smaller compared with the control”, the Corticosterone (CRH-overexpressed mice; serum, CRH-overexpressed mice, 60 mg/kg oral once a day) was 87.1 ng/mL and the body weight (CRH-overexpressed mice; week 0, CRH-overexpressed mice, 60 mg/kg oral once a day) was 18.4. For the same molecule, the body weight (CRH-overexpressed mice; week 1, CRH-overexpressed mice, 60 mg/kg oral once a day) was 17.8, the body weight (CRH-overexpressed mice; week 2, CRH-overexpressed mice, 60 mg/kg oral once a day) was 17.8 and the body weight (CRH-overexpressed mice; week 3, CRH-overexpressed mice, 60 mg/kg oral once a day) was 18.2. The body weight (CRH-overexpressed mice; week 4, CRH-overexpressed mice, 60 mg/kg oral once a day) was 18.1, the body weight (CRH-overexpressed mice; week 5, CRH-overexpressed mice, 60 mg/kg oral once a day) was 18.4 and the body weight (CRH-overexpressed mice; week 6, CRH-overexpressed mice, 60 mg/kg oral once a day) was 17.9. The body weight (CRH-overexpressed mice; week 7, CRH-overexpressed mice, 60 mg/kg oral once a day) was 19.8, the body weight (CRH-overexpressed mice; week 8, CRH-overexpressed mice, 60 mg/kg oral once a day) was 19.7 and the body weight (CRH-overexpressed mice; week 9, CRH-overexpressed mice, 60 mg/kg oral once a day) was 19.2. For the same molecule, the “rate of increase in corticosterone level after stress induction (in words)” value (8-week-old male mice; restraint stress, oral administration) was “rate of increase in corticosterone level decreased”, the corticosterone concentration (8-week-old male mice; 0 min (before stress induction)) was 63.6 and the corticosterone concentration (8-week-old male mice; 60 min (1 hour after stress induction)) was 260.4. It also gave a corticosterone concentration (8-week-old male mice; 120 min (2 hours after stress induction)) of 261.4 and a corticosterone concentration (8-week-old male mice; 180 min (1 hour of recovery)) of 105.8.
